# Measured values taken from paper PMC3388080 (PLoS ONE, 2012).
# Test system: male Sprague-Dawley rats
# Experiment: EEG/EMG/Tcore/LMA telemetry sleep study 2 (EMPA vs ZOL)
# Type: in vivo, rat
# Details: for REM:NR ratio: 6 h after dosing
# Protocol: All rodent electroencephalograph (EEG) studies were performed at SRI International. Three groups of eight male Sprague-Dawley rats (300±25 g; Charles River, Wilmington, MA) were implanted with chronic recording devices (F40-EET, Data Sciences Inc., St Paul, MN) for continuous recordings of EEG, electromyograph (EMG), core body temperature (Tcore), and LMA via telemetry as previously described. Data recording and scoring were performed as previously reported (see also Supplemental Material and Methods). The EEG and EMG data were scored in 10 sec epochs for waking (W), rapid eye movement sleep (REM), and non-REM sleep (NR). Tcore and LMA (counts per minute) were analyzed as hourly means. Data from the EEG studies are reported in hourly means such that the hourly time ZT1 refers to the hour between time points ZT0 and ZT1.
# For each of the three separate studies, a repeated measures counter-balanced design was employed in which each rat received five separate dosings. […] All dosings were administered ip in a volume of 2 ml/kg. A minimum of 3 d elapsed between doses. Dosing occurred during the middle of the rats’ normal active period at the start of ZT19 and was typically completed within 10 min. Animals were continuously recorded for 6 h prior to dosing and for 18 h following dosing.
smiles,measurement,setting,value
"CCN(Cc1cccnc1)C(=O)CN(c1ccc(OC)nc1)S(=O)(=O)c1ccccc1C [EMPA, N-(Ethyl-2-[(6-methoxy-pyridin-3-yl)-(toluene-2-sulfonyl)-amino]-N-pyridin-3-ylmethyl-acetamide)]",LMA (in words),"100 mg/kg ip, across 6 h, vs vehicle",LMA was decreased
same,cumulative NR (in words),"100 mg/kg ip, first 4 and 6 h periods",increased cumulative NR
same,NR bout duration,"6 h Average, 30 mg/kg ip",1.43 ±0.14
same,REM bout duration,"6 h Average, 30 mg/kg ip",0.88 ± 0.09
same,W bout duration,"6 h Average, 30 mg/kg ip",5.35 ±0.77
same,NR bout duration,"6 h Average, 100 mg/kg ip",1.28 ± 0.12^+
same,REM bout duration,"6 h Average, 100 mg/kg ip",0.96 ± 0.09
same,W bout duration,"6 h Average, 100 mg/kg ip",3.54 ± 0.20
same,NR bout duration,"6 h Average, EMPA 10 mg/kg ip",1.34 ± 0.17
same,REM bout duration,"6 h Average, EMPA 10 mg/kg ip",0.79 ± 0.09
same,W bout duration,"6 h Average, EMPA 10 mg/kg ip",5.56 ± 0.52
same,Number of NR bouts,"6 h Total, 30 mg/kg ip",68.80 ± 7.18
same,Number of REM bouts,"6 h Total, 30 mg/kg ip",22.10 ± 3.30^+
same,Number of W bouts,"6 h Total, 30 mg/kg ip",51.30 ± 4.95
same,Number of NR bouts,"6 h Total, 100 mg/kg ip",84.80 ± 5.06
same,Number of REM bouts,"6 h Total, 100 mg/kg ip",20.00 ± 1.93^+
same,Number of W bouts,"6 h Total, 100 mg/kg ip",65.10 ± 3.37
same,Number of NR bouts,"6 h Total, EMPA 10 mg/kg ip",68.80 ±6.22
same,Number of REM bouts,"6 h Total, EMPA 10 mg/kg ip",18.10 ± 2.28^+
same,Number of W bouts,"6 h Total, EMPA 10 mg/kg ip",50.20 ±5.70
same,REM:NR ratio,10 mg/kg ip (EMPA),0.16±0.019^+
same,REM:NR ratio,30 mg/kg ip,0.21±0.032^+
same,REM:NR ratio,100 mg/kg ip,0.18±0.027^+
same,NR bout duration,"ZT19, 30 mg/kg ip",1.27± 0.15^+
same,Number of NR bouts,"ZT19, 30 mg/kg ip",9.90 ± 1.60
same,Number of REM bouts,"ZT19, 30 mg/kg ip",1.20± 0.49
same,Number of W bouts,"ZT19, 30 mg/kg ip",6.20± 0.98
same,REM bout duration,"ZT19, 30 mg/kg ip",0.62± 0.22
same,W bout duration,"ZT19, 30 mg/kg ip",11.89± 5.40
same,NR bout duration,"ZT19, 100 mg/kg ip",1.11± 0.19^+
same,Number of NR bouts,"ZT19, 100 mg/kg ip",10.80± 2.39
same,Number of REM bouts,"ZT19, 100 mg/kg ip",0.90± 0.46
same,Number of W bouts,"ZT19, 100 mg/kg ip",9.80± 2.48
same,REM bout duration,"ZT19, 100 mg/kg ip",0.86± 0.19
same,W bout duration,"ZT19, 100 mg/kg ip",13.14± 5.99
same,NR bout duration,"ZT19, EMPA 10 mg/kg ip",1.60± 0.25^+
same,Number of NR bouts,"ZT19, EMPA 10 mg/kg ip",7.40 ± 2.00
same,Number of REM bouts,"ZT19, EMPA 10 mg/kg ip",1.60± 0.67
same,Number of W bouts,"ZT19, EMPA 10 mg/kg ip",4.60± 1.25
same,REM bout duration,"ZT19, EMPA 10 mg/kg ip",0.64± 0.15
same,W bout duration,"ZT19, EMPA 10 mg/kg ip",16.42± 5.00
same,NR bout duration,"ZT20, 30 mg/kg ip",1.50± 0.28^+
same,Number of NR bouts,"ZT20, 30 mg/kg ip",12.50± 2.18
same,Number of REM bouts,"ZT20, 30 mg/kg ip",4.40± 0.96^+
same,Number of W bouts,"ZT20, 30 mg/kg ip",8.30± 1.27
same,REM bout duration,"ZT20, 30 mg/kg ip",0.87± 0.13
same,W bout duration,"ZT20, 30 mg/kg ip",9.83± 5.62
same,NR bout duration,"ZT20, 100 mg/kg ip",1.86± 0.28^+
same,Number of NR bouts,"ZT20, 100 mg/kg ip",16.50± 2.03
same,Number of REM bouts,"ZT20, 100 mg/kg ip",5.00± 1.12^+
same,Number of W bouts,"ZT20, 100 mg/kg ip",11.60± 1.11
same,REM bout duration,"ZT20, 100 mg/kg ip",0.88± 0.08
same,W bout duration,"ZT20, 100 mg/kg ip",2.46± 0.62
same,NR bout duration,"ZT20, EMPA 10 mg/kg ip",1.15± 0.15^+
same,Number of NR bouts,"ZT20, EMPA 10 mg/kg ip",14.00±2.52
same,Number of REM bouts,"ZT20, EMPA 10 mg/kg ip",4.10± 1.11
same,Number of W bouts,"ZT20, EMPA 10 mg/kg ip",10.70± 1.85
same,REM bout duration,"ZT20, EMPA 10 mg/kg ip",0.90± 0.18
same,W bout duration,"ZT20, EMPA 10 mg/kg ip",9.37± 5.67
same,NR bout duration,"ZT21, 30 mg/kg ip",1.52± 0.21
same,Number of NR bouts,"ZT21, 30 mg/kg ip",15.90± 2.21
same,Number of REM bouts,"ZT21, 30 mg/kg ip",5.80± 1.35
same,Number of W bouts,"ZT21, 30 mg/kg ip",11.70± 1.55
same,REM bout duration,"ZT21, 30 mg/kg ip",1.01 ± 0.11
same,W bout duration,"ZT21, 30 mg/kg ip",3.04± 0.83
same,NR bout duration,"ZT21, 100 mg/kg ip",1.17± 0.11
same,Number of NR bouts,"ZT21, 100 mg/kg ip",17.00± 2.91
same,Number of REM bouts,"ZT21, 100 mg/kg ip",4.10± 1.08
same,Number of W bouts,"ZT21, 100 mg/kg ip",12.40± 2.01
same,REM bout duration,"ZT21, 100 mg/kg ip",1.18 ± 0.14^+
same,W bout duration,"ZT21, 100 mg/kg ip",8.88± 5.82
same,NR bout duration,"ZT21, EMPA 10 mg/kg ip",1.12± 0.17
same,Number of NR bouts,"ZT21, EMPA 10 mg/kg ip",13.50± 2.15
same,Number of REM bouts,"ZT21, EMPA 10 mg/kg ip",3.40± 0.73
same,Number of W bouts,"ZT21, EMPA 10 mg/kg ip",10.20± 1.61
same,REM bout duration,"ZT21, EMPA 10 mg/kg ip",0.69 ± 0.11
same,W bout duration,"ZT21, EMPA 10 mg/kg ip",6.55± 2.67
same,NR bout duration,"ZT22, 30 mg/kg ip",1.38± 0.15
same,Number of NR bouts,"ZT22, 30 mg/kg ip",12.20± 1.65
same,Number of REM bouts,"ZT22, 30 mg/kg ip",5.30± 1.09
same,Number of W bouts,"ZT22, 30 mg/kg ip",9.20± 1.32
same,REM bout duration,"ZT22, 30 mg/kg ip",0.83± 0.13
same,W bout duration,"ZT22, 30 mg/kg ip",4.90± 1.31
same,NR bout duration,"ZT22, 100 mg/kg ip",1.32± 0.31
same,Number of NR bouts,"ZT22, 100 mg/kg ip",18.40± 2.70
same,Number of REM bouts,"ZT22, 100 mg/kg ip",4.80± 0.98
same,Number of W bouts,"ZT22, 100 mg/kg ip",13.20± 1.76
same,REM bout duration,"ZT22, 100 mg/kg ip",0.84± 0.17
same,W bout duration,"ZT22, 100 mg/kg ip",2.84± 0.49
same,NR bout duration,"ZT22, EMPA 10 mg/kg ip",1.33± 0.24
same,Number of NR bouts,"ZT22, EMPA 10 mg/kg ip",12.70± 1.87
same,Number of REM bouts,"ZT22, EMPA 10 mg/kg ip",3.30± 0.58
same,Number of W bouts,"ZT22, EMPA 10 mg/kg ip",8.20± 1.73
same,REM bout duration,"ZT22, EMPA 10 mg/kg ip",0.84± 0.16
same,W bout duration,"ZT22, EMPA 10 mg/kg ip",7.34± 2.67
same,NR bout duration,"ZT23, 30 mg/kg ip",0.90± 0.11^+
same,Number of NR bouts,"ZT23, 30 mg/kg ip",10.80± 2.35
same,Number of REM bouts,"ZT23, 30 mg/kg ip",3.40± 1.24
same,Number of W bouts,"ZT23, 30 mg/kg ip",8.00± 1.56
same,REM bout duration,"ZT23, 30 mg/kg ip",0.75± 0.21
same,W bout duration,"ZT23, 30 mg/kg ip",11.46± 5.56
same,NR bout duration,"ZT23, 100 mg/kg ip",1.10± 0.20
same,Number of NR bouts,"ZT23, 100 mg/kg ip",12.30± 1.25
same,Number of REM bouts,"ZT23, 100 mg/kg ip",3.20± 0.63
same,Number of W bouts,"ZT23, 100 mg/kg ip",8.60± 1.01
same,REM bout duration,"ZT23, 100 mg/kg ip",0.96± 0.19
same,W bout duration,"ZT23, 100 mg/kg ip",4.89 ±0.81
same,NR bout duration,"ZT23, EMPA 10 mg/kg ip",1.39± 0.18
same,Number of NR bouts,"ZT23, EMPA 10 mg/kg ip",11.00± 1.40
same,Number of REM bouts,"ZT23, EMPA 10 mg/kg ip",3.40± 0.65
same,Number of W bouts,"ZT23, EMPA 10 mg/kg ip",7.90± 1.27
same,REM bout duration,"ZT23, EMPA 10 mg/kg ip",0.85± 0.09
same,W bout duration,"ZT23, EMPA 10 mg/kg ip",6.10± 1.02
same,NR bout duration,"ZT24, 30 mg/kg ip",1.45± 0.49
same,Number of NR bouts,"ZT24, 30 mg/kg ip",7.50± 1.61
same,Number of REM bouts,"ZT24, 30 mg/kg ip",2.00± 0.94
same,Number of W bouts,"ZT24, 30 mg/kg ip",7.10± 1.63
same,REM bout duration,"ZT24, 30 mg/kg ip",0.69± 0.13
same,W bout duration,"ZT24, 30 mg/kg ip",16.83± 7.31
same,NR bout duration,"ZT24, 100 mg/kg ip",1.04± 0.17
same,Number of NR bouts,"ZT24, 100 mg/kg ip",9.40± 2.24
same,Number of REM bouts,"ZT24, 100 mg/kg ip",2.00± 1.01
same,Number of W bouts,"ZT24, 100 mg/kg ip",8.40± 1.92
same,REM bout duration,"ZT24, 100 mg/kg ip",0.49± 0.09
same,W bout duration,"ZT24, 100 mg/kg ip",14.62± 6.09
same,NR bout duration,"ZT24, EMPA 10 mg/kg ip",1.25± 0.18^+
same,Number of NR bouts,"ZT24, EMPA 10 mg/kg ip",10.00± 2.22
same,Number of REM bouts,"ZT24, EMPA 10 mg/kg ip",2.30± 0.98
same,Number of W bouts,"ZT24, EMPA 10 mg/kg ip",7.80± 1.76
same,REM bout duration,"ZT24, EMPA 10 mg/kg ip",0.54± 0.10
same,W bout duration,"ZT24, EMPA 10 mg/kg ip",9.17± 2.45
same,NR or REM latency (in words),administered in the mid-dark phase,no effect on either NR or REM latency
same,number of W bouts (in words),"all three concentrations (10, 30, 100 mg/kg ip)",increased the number of W bouts
same,Tcore (in words),"high concentration tested, across 6 h",decreased Tcore
same,NR during the subsequent light period (in words),light period,No significant effects on NR
